Laboratory results from article PMC4338079, “N-Terminus Three Residues Deletion Mutant of Human Beta-Defensin 3 with Remarkably Enhanced Salt-Resistance” (PLoS ONE, 2015).
Where a SMILES comes first, the peptide text is derived from it. Where no end group is shown, it is not given here.

Legend:
K. pneumonia ATCC 700603 = assay type: cell-based, Klebsiella pneumonia; conditions: 10^5-10^6 CFU/ml in PBS pH 7.2, 3 h at 37°C, colony count, mean ± SD of three
Description: (§1) Ten strains obtained from the American Type Culture Collection (ATCC) and China Center of Industrial Culture Collection (CICC) were used for antibacterial and salt resistance assays. The Gram-positive strains were Staphyloccocus aureus ATCC 29213, Enterococcus faecalis ATCC 29212, Staphylococcus epidermidis ATCC 12228, Enterococcus faecium ATCC 6057, and Enterococcus faecium ATCC 19434. The Gram-negative strains were Escherichia coli ATCC 25922, Pseudomonas aeruginosa ATCC 15442, Klebsiella pneumonia ATCC 700603, Shigella flexneri CICC 21534, and Shigella sonnei CICC 21535. Fifteen E. coli clinical isolates were collected from 302 Military Hospital of China. The Gram-positive and Gram-negative strains were grown in Luria—Bertani (LB) and Mueller—Hinton (MH) media at 37°C, respectively.
(§2) The antibacterial activities of these peptides were determined in a modified microdilution assay as described previously. […] The five concentrations of the peptides were added to 200 μl of the bacterial suspension and then incubated at 37°C for 3 h before CFU numbers were determined. […] The cells were serially diluted in the same buffer, plated on Luria broth plates, and then incubated for 18 h at 37°C before the resulting colonies were counted. The bactericidal activity was expressed as the ratio of colonies counted to the number of colonies on a control plate. […]

Vero cells = tested on: Vero cells
Protocol: Vero cells suspended in Dulbecco’s modified Eagle’s medium (DMEM)-high glucose culture medium supplemented with 10% (vol/vol) fetal calf serum and 1% (vol/vol) penicillin—streptomycin were seeded on a 96-well microtiter plate at a density of 1×10^4 cells per well. After incubation overnight at 37°C under 5% CO2 in a humidified atmosphere, the cells were washed twice with buffer (pH 7.4) containing 20 mM HEPES and 150 mM NaCl. Defensins were diluted in the same wash buffer, and 200 μl was added per well. The buffer was discarded after 2 h of incubation at 37°C under 5% CO2. Subsequently, 200 μl of DMEM and 50 μl of 3-(4,5-dimethylthiazol-2-yl)-2,5-diphenyltetrazolium bromide (MTT, 5 mg/ml) were added. DMEM (100%) and MTT were discarded, and 200 μl of DMSO was added in the plate after 6 h of incubation at 37°C under 5% CO2. The absorbance was measured at 490 nm with a microtiter plate reader.

E. coli ATCC 25922 = assay type: cell-based, Escherichia coli; conditions: 10^5-10^6 CFU/ml in PBS pH 7.2, 3 h at 37°C, colony count, mean ± SD of three
Description: as §1, §2

[1] = tested on: S. epidermidis ATCC 12228; assay type: cell-based, Staphylococcus epidermidis; conditions: 10^5-10^6 CFU/ml in PBS pH 7.2, 3 h at 37°C, colony count, mean ± SD of three
Description: as §1, §2

[2] = tested on: fifteen E. coli clinical isolates; test: Salt resistance assay against clinical isolates; assay type: cell-based, Escherichia coli; conditions: of 15 E. coli clinical isolates, peptide 10 μg/ml
Description: as §1
(§3) The antibacterial activities of these peptides were determined in a modified microdilution assay as described previously. The strains were grown under aerobic condition in MH or LB broth at 37°C and then harvested in the exponential phase of growth (OD600 ≈ 0.6. OD, optical density). After dilution, the test strains were adjusted to 10^5 to 10^6 CFU bacteria per ml in phosphate-buffered saline solution (pH 7.2). The five concentrations of the peptides were added to 200 μl of the bacterial suspension and then incubated at 37°C for 3 h before CFU numbers were determined. Phosphate buffer served as the negative control. The cells were serially diluted in the same buffer, plated on Luria broth plates, and then incubated for 18 h at 37°C before the resulting colonies were counted. The bactericidal activity was expressed as the ratio of colonies counted to the number of colonies on a control plate. The 90% lethal concentration (LD90) is the concentration of the peptide at which 90% of viable cells are killed.
(§4) For the salt resistance assay, NaCl was included in the incubation buffer (1% MH or LB) over a range of concentrations (0, 50, 100, 150, and 200 mM NaCl) potentially present in the airway surface fluid of healthy subjects and patients with cystic fibrosis. For E. coli clinical isolates, the NaCl concentrations were increased to 0, 50, 100, 150, 200, 250, and 300 mM. The peptide concentration used in the salt dependence assay was 10 μg/ml, except for the 30 μg/ml concentration used against K. pneumonia ATCC 700603. Each assay was performed in triplicate. Bactericidal activity (the mean and standard deviation of three assays) was expressed as the ratio between the number of colonies counted and the number of colonies on a control plate.

E. faecium ATCC 6057 = assay type: cell-based, Enterococcus faecium; conditions: 10^5-10^6 CFU/ml in PBS pH 7.2, 3 h at 37°C, colony count, mean ± SD of three
Description: as §1, §2

E. faecium ATCC 19434 = assay type: cell-based, Enterococcus faecium; conditions: 10^5-10^6 CFU/ml in PBS pH 7.2, 3 h at 37°C, colony count, mean ± SD of three
Description: as §1, §2

S. flexneri CICC 21534 = assay type: cell-based, Shigella flexneri; conditions: 10^5-10^6 CFU/ml in PBS pH 7.2, 3 h at 37°C, colony count, mean ± SD of three
Description: as §1, §2

E. faecalis ATCC 29212 = assay type: cell-based, Enterococcus faecalis; conditions: 10^5-10^6 CFU/ml in PBS pH 7.2, 3 h at 37°C, colony count, mean ± SD of three
Description: as §1, §2

P. Aeruginosa ATCC 15442 = assay type: cell-based, Pseudomonas aeruginosa; conditions: 10^5-10^6 CFU/ml in PBS pH 7.2, 3 h at 37°C, colony count, mean ± SD of three
Description: as §1, §2

S. sonnei CICC 21535 = assay type: cell-based, Shigella sonnei; conditions: 10^5-10^6 CFU/ml in PBS pH 7.2, 3 h at 37°C, colony count, mean ± SD of three
Description: as §1, §2

S. aureus ATCC 29213 = assay type: cell-based, Staphyloccocus aureus; conditions: 10^5-10^6 CFU/ml in PBS pH 7.2, 3 h at 37°C, colony count, mean ± SD of three
Description: as §1, §2

[3] = tested on: four Gram-positive and five Gram-negative bacteria; test: Salt resistance assay, summary over the nine tested strains; assay type: cell-based; conditions: peptide 10 μg/ml (30 μg/ml K. pneumonia)
Protocol: as §3, §4

| Molecule | LD90 (Mean ± SD) (K. pneumonia ATCC 700603) | Concentration from which cytotoxicity starts (Vero cells) | LD90 (Mean ± SD) (E. coli ATCC 25922) [µg/mL] | LD90 (Mean ± SD) [1] [µg/mL] | Number of isolates in which 50% or more activity was retained ([2]; 200 mM NaCl) | LD90 (Mean ± SD) (E. faecium ATCC 6057) [µg/mL] | LD90 (Mean ± SD) (E. faecium ATCC 19434) [µg/mL] | LD90 (Mean ± SD) (S. flexneri CICC 21534) [µg/mL] | LD90 (Mean ± SD) (E. faecalis ATCC 29212) [µg/mL] | LD90 (Mean ± SD) (P. Aeruginosa ATCC 15442) [µg/mL] | LD90 (Mean ± SD) (S. sonnei CICC 21535) [µg/mL] | LD90 (Mean ± SD) (S. aureus ATCC 29213) [µg/mL] | Effect of NaCl on antibacterial activity ([3]; 50 mM NaCl, all the tested strains, except for E. coli) | Effect of NaCl on antibacterial activity ([3]; 200 mM NaCl versus 0 mM NaCl, P < 0.01) | Number of isolates in which 50% or more activity was retained ([2]; 250 mM NaCl) [isolates] | Number of isolates in which 50% or more activity was retained ([2]; 300 mM NaCl) [isolates] | Effect of NaCl on antibacterial activity ([3]; 100 mM NaCl, all the tested strains, except for S. aureus) |
| --- | --- | --- | --- | --- | --- | --- | --- | --- | --- | --- | --- | --- | --- | --- | --- | --- | --- |
| CC[C@H](C)[C@H](NC(=O)[C@H](CCC(N)=O)NC(=O)[C@H](CCC(=O)O)NC(=O)[C@H](CCC(=O)O)NC(=O)[C@H](CCCCN)NC(=O)[C@@H]1CCCN1C(=O)[C@H](CC(C)C)NC(=O)[C@H](CS)NC(=O)[C@H](CO)NC(=O)[C@H](CC(C)C)NC(=O)[C@@H](NC(=O)[C@H](C)NC(=O)[C@H](CS)NC(=O)[C@H](CCCNC(=N)N)NC(=O)CNC(=O)CNC(=O)[C@H](CCCNC(=N)N)NC(=O)[C@@H](NC(=O)[C@H](CCCNC(=N)N)NC(=O)[C@H](CS)NC(=O)[C@@H](N)Cc1ccc(O)cc1)C(C)C)C(C)C)C(=O)NCC(=O)N[C@@H](CCCCN)C(=O)N[C@@H](CS)C(=O)N[C@@H](CO)C(=O)N[C@H](C(=O)N[C@@H](CCCNC(=N)N)C(=O)NCC(=O)N[C@@H](CCCNC(=N)N)C(=O)N[C@@H](CCCCN)C(=O)N[C@@H](CS)C(=O)N[C@@H](CS)C(=O)N[C@@H](CCCNC(=N)N)C(=O)N[C@@H](CCCNC(=N)N)C(=O)N[C@@H](CCCCN)C(=O)N[C@@H](CCCCN)C(=O)O)[C@@H](C)O [hBD-3Δ10] (H-YCRVRGGRCAVLSCLPKEEQIGKCSTRGRKCCRRKK-OH; N-terminus and C-terminus assumed) | more than 100 μg/ml |  |  |  |  |  |  |  |  |  |  |  |  |  |  |  |  |
| GIINTLQKYYCRVRGGRCAVLSCLPKEEQIGKCSTRGRKCCRRKK (cysteines drawn unpaired) [hBD-3, human beta-defensin 3] | 18.6 ± 2.8 µg/mL | higher than 20 μg/ml | 8.0 ± 1.2 | 3.5 ± 1.2 | two | 1.6 ± 0.4 | 2.3 ± 0.5 | 3.7 ± 0.2 | 2.4 ± 1.0 | 6.8 ± 0.9 | 4.0 ± 0.7 | 4.0 ± 0.8 | not or slightly inhibited | greatly inhibited |  |  |  |
| NTLQKYYCRVRGGRCAVLSCLPKEEQIGKCSTRGRKCCRRKK (cysteines drawn unpaired) [hBD-3Δ4] |  |  |  |  | 14 isolates |  |  |  |  |  |  |  |  |  | 8 | 5 | almost the same antimicrobial activity as it would have in the absence of NaCl |
